The values that follow come from US20230355605A1, “DRUG FOR ENHANCING FIBRINOLYTIC SYSTEM, AND USE THEREFOR” (priority 2020, published 2023).

The test system of one data set is pregnant rats. Put plainly: Embryo-fetal developmental toxicity study. Type of data set: in vivo, rat. The conditions noted are these: oral, days 7 to 17 of gestation. On the procedure:
The effect of oral administration of the present compound on embryo-fetal development was examined using rats. Specifically, the present compound was orally administered to pregnant rats from implantation to closure of the hard palate (days 7 to 17 of gestation), and the effect on the mothers, and embryos and fetuses was examined. Furthermore, the plasma concentration of the present compound after administration was measured, and its change was examined. During the study period, the general conditions of all of the animals were observed, and their body weights were measured; in the toxicity group, food consumption was measured; a Cesarean section test was performed on day 20 of gestation. Thereafter, fetal visceral and skeletal specimens were prepared, and a fetal examination was performed.

For data set [1], the system named is conscious cynomolgus monkeys. Put plainly: Effect on cardiovascular and respiratory system (telemetry, blood gas). It is filed as in vivo, cynomolgus monkey. The conditions noted are these: single oral dose, up to 300 mg/kg. On the procedure: The effect of the present compound on the cardiovascular system and the respiratory system was examined by a telemetry method and blood gas measurement using conscious cynomolgus monkeys. Systemic exposure of the test substance was also evaluated. Specifically, a control substance (a 0.5 w/v% carmellose sodium aqueous solution) and the present compound were orally administered at single ascending dosages at intervals of 7 days, and the heart rate, blood pressure (systolic blood pressure, diastolic blood pressure, and mean blood pressure), electrocardiogram (PR interval, QRS duration, QT interval, and QTc interval), respiratory rate, and body temperature were measured before administration and 1, 2, 4, 6, and 24 hours after administration on each administration day with the monkeys unanesthetized and unrestrained. Furthermore, before administration and 2, 6, and 24 hours after administration on each administration day, arterial blood was collected, and blood gases (oxygen partial pressure, carbon dioxide partial pressure, pH, and oxygen saturation) were measured. Systemic exposure was also evaluated by measuring the concentration of the test substance in plasma.

On the set-up of data set [2]: species or system human. The conditions noted are these: in vivo, po. As for the experimental part:
A placebo-controlled single oral dose study was performed to examine the safety and pharmacokinetics upon single oral dose administration of the present compound in healthy Japanese adult males (subjects).
The oral dosages were 30 mg (step 1), 60 mg (step 2), 120 mg (step 3), and 240 mg (step 5) per day, and the food effect was separately examined in administration at a dosage of 60 mg (step 4) (a total of five steps). In steps 1 to 3 and 5, the number of subjects per step was 8 (6 subjects in the present compound administration group and 2 subjects in the placebo group), of which 1 subject of the present compound administration group and 1 subject of the placebo group were used as the preceding group, and 5 subjects of the present compound administration group and 1 subject of the placebo group were used as the following group. The study proceeds to the following group after confirming safety in the preceding group. The transition from one step to the next was made after confirming safety. In step 4, which examines the food effect, the present compound was orally administered to all 6 subjects. […]
After administration of the present compound and the placebo, the following items were evaluated in each subject. […]

For a further data set, the system named is male Crl:CD(SD) rats. Briefly: Effect on central nervous system (functional observational battery). It is filed as in vivo, rat. The conditions noted are these: single oral dose, up to 300 mg/kg. As for the experimental part: The effect of the present compound on the central nervous system was examined by the functional observational battery (FOB) in rats, using male Crl:CD(SD) rats. Specifically, the present compound was orally administered to the rats in a single dose, and the rats were observed before administration and 0.5, 1, 2, 4, 8, and 24 hours after administration. To a control group (six rats), a 0.5 w/v% carmellose sodium aqueous solution (vehicle) was administered instead of the present compound in the same manner. […] Thus, it was considered that the present compound has no effect on the central nervous system up to a dosage of 300 mg/kg in single oral dose administration using rats.

For `O=C(Nc1ccc(Cl)cc1C(=O)[O-])c1cccc(-c2cccc3cccnc23)c1.[Na+]` [present compound, sodium 5-chloro-2-({ [3-(quinolin-8-yl)phenyl]carbonyl}amino)benzoate], in the data set on pregnant rats, the “effect on pregnancy, embryos and fetuses” value was “no effect on maintenance of pregnancy, no embryolethal effect, no fetal growth suppressive effect, and no teratogenic effect”; the “no-observed-adverse-effect level for embryos and fetuses” value is 1000 mg/kg/day; the “no-observed-adverse-effect level for the mothers” value was 1000 mg/kg/day. Further, the “effect on the cardiovascular system or the respiratory system” value in data set [1] is recorded as “no effect”. Also, the AUC versus dosage result in data set [2] is “linearity”. In addition, in the data set with male Crl:CD(SD) rats, the “effect on the central nervous system” value is on record as “no effect”.
